Measurements as given in patent US20110313156A1 (BOEHRINGER INGELHEIM INTERNATIONAL GMBH, priority 2008, published 2011).

Target: T1, His6-PDK1 (aa 52-556) (Homo sapiens, UniProt O15530)
T1 construct: 15 μL His6-PDK1 (aa 52-556) 3.33 ng/well); host or cells: baculovirus-infected insect cells
T1 sequence (O15530 52-556): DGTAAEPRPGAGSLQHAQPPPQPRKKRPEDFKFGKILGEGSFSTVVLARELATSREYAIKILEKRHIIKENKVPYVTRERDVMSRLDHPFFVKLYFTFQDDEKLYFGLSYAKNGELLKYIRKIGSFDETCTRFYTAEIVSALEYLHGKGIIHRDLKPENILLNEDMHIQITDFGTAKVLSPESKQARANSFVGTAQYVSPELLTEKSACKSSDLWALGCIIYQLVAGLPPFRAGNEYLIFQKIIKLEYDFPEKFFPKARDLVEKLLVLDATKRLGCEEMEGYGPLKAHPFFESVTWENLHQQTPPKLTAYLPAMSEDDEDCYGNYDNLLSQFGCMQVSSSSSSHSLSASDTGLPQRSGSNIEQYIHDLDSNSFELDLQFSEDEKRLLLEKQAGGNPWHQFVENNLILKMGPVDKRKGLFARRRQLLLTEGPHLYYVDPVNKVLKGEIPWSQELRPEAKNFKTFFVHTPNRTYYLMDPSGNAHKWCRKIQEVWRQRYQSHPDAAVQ
Assay: PDK1 kinase assay III (with Tween 20)
Assay type: biochemical
Conditions: compound at 10 μM; PDK1 kinase assay III (values without asterisk); read-out: % CTL (residual activity of the enzyme relative to DMSO control)
In short: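 Started with ATP, incubated 90 min at ambient temperature, then stopped with phosphoric acid. Asterisked values come from assay II (24 h or 5 min incubation).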

Row | Structure (SMILES) | remaining activity at 10 µM
1 | Cc1c[nH]c(/C=C2\C(=O)Nc3cc(/C=C/CNC(=O)c4cncn(Cc5ccc(F)c(F)c5)c4=O)cc(F)c32)n1 [I-48, 1-(3,4-difluorobenzyl)-N-[(2E)-3-{(3Z)-4-fluoro-3-[(4-methyl-1H-imidazol-2-yl)methylidene]-2-oxo-2,3-dihydro-1H-indol-6-yl}prop-2-en-1-yl]-6-oxo-1,6-dihydropyrimidine-5-carboxamide] | 23.1%
2 | Cc1c(C(=O)NCC#Cc2cc3cnc(Nc4ccc(N5CCOCC5)cc4)nc3n(C(C)C)c2=O)c(=O)n(Cc2ccc(F)c(F)c2)n1C [IV-58, 2-(3,4-difluorobenzyl)-1,5-dimethyl-N-{3-[2-{[4-(morpholin-4-yl)phenyl]amino}-7-oxo-8-(propane-2-yl)-7,8-dihydropyrido[2,3-c]pyrimidin-6-yl]prop-2-yn-1-yl}-3-oxo-2,3-dihydro-1H-pyrazole-4-carboxamide] | 14.6%
3 | Cc1nc[nH]c1/C=C1\C(=O)Nc2cc(/C=C/CNC(=O)c3cncn(Cc4ccc(F)c(F)c4)c3=O)ccc21 [I-4, 1-(3,4-difluorobenzyl)-N-[(2E)-3-{(3Z)-3-[(5-methyl-1H-imidazol-4-yl)methylidene]-2-oxo-2,3-dihydro-1H-indol-6-yl]prop-2-en-1-yl}-6-oxo-1,6-dihydropyrimidine-5-carboxamide] | 16.4%
4 | Cc1c(C(=O)NCC#Cc2cc(OCCN)c3nc(Nc4ccccc4)ncc3c2)c(=O)n(Cc2ccc(F)c(F)c2)n1C | 9.8%
5 | O=C1Nc2cc(/C=C/CNC(=O)C3CCN(Cc4ccc(F)c(F)c4)C3=O)ccc2/C1=C/c1cnc[nH]1 (stereo not drawn) [I-11, 1-(3,4-difluorobenzyl)-N-{(2E)-3-[(3Z)-3-(1H-imidazol-5-ylmethylidene)-2-oxo-2,3-dihydro-1H-indol-6-yl]prop-2-en-1-yl}-2-oxopyrrolidine-3-carboxamide] | 21.7%
6 | Cc1c(C(=O)NCc2ccc(Nc3ncnc4[nH]c(-c5ccccc5)cc34)cc2)c(=O)n(Cc2ccc(F)c(F)c2)n1C [IV-25, 2-(3,4-difluorobenzyl)-1,5-dimethyl-3-oxo-N-{4-[(6-phenyl-7H-pyrrolo[2,3-d]-pyrimidin-4-yl)amino]benzyl}-2,3-dihydro-1H-pyrazole-4-carboxamide] | 33.5%
7 | COC(=O)c1ccc(Nc2ncc3cc(/C=C/CNC(=O)c4cncn(Cc5ccc(F)c(F)c5)c4=O)ccc3n2)cc1Cl | 22.5%
8 | Cc1c(C(=O)NC/C=C/c2ccc3nc(N)ncc3c2)c(=O)n(Cc2ccc(F)c(F)c2)n1C | 23%
9 | Cc1c(/C=C/CNC(=O)c2c(C)n(C)n(Cc3ccc(F)c(F)c3)c2=O)c(=O)n(C(C)C)c2nc(Nc3ccc(N4CCOCC4)cc3)ncc12 [IV-37, 2-(3,4-difluorobenzyl)-1,5-dimethyl-N-{(2E)-3-[5-methyl-2-{[4-(morpholin-4-yl)phenyl]amino}-7-oxo-8-(propane-2-yl)-7,8-dihydropyrido[2,3-c]pyrimidin-6-yl]prop-2-en-1-yl}-3-oxo-2,3-dihydro-1H-pyrazole-4-carboxamide] | 15.4%
10 | Cc1c(C(=O)NCC#Cc2ccc3nc(Nc4ccc(C(=O)NCCCO)cc4)ncc3c2)c(=O)n(Cc2ccc(F)c(F)c2)n1C | 15.2%
11 | Cc1c(C(=O)NCC#Cc2ccc3nc(Nc4ccc(C(=O)N(C)CCCO)cc4)ncc3c2)c(=O)n(Cc2ccc(F)c(F)c2)n1C | 23.2%
12 | Cc1c(C(=O)NC/C=C/c2ccc3nc(Nc4ccc(CN(C)C)cc4)ncc3c2)c(=O)n(Cc2ccccc2)n1C [IV-19, 2-benzyl-N-{(2E)-3-[2-({4-[(dimethylamino)methyl]phenyl}amino)quinazolin-6-yl]prop-2-en-1-yl}-1,5-dimethyl-3-oxo-2,3-dihydro-1H-pyrazole-4-carboxamide] | 12.6%
13 | Cc1c(C#CCNC(=O)c2c(C)n(C)n(Cc3ccc(F)c(F)c3)c2=O)c(=O)n(CCN)c2nc(Nc3ccc(N4CCOCC4)cc3)ncc12 [IV-60, N-{3-[8-(2-aminoethyl)-5-methyl-2-{[4-(morpholin-4-yl)phenyl]amino}-7-oxo-7,8-dihydropyrido[2,3-d]pyrimidin-6-yl]prop-2-yn-1-yl}-2-(3,4-difluorobenzyl)-1,5-dimethyl-3-oxo-2,3-dihydro-1H-pyrazole-4-carboxamide] | 13.3%
14 | CN(C)Cc1ccc(-c2n[nH]c3cc(C#CCNC(=O)c4cncn(Cc5ccc(F)c(F)c5)c4=O)ccc23)cc1 [II-9, 1-(3,4-difluorobenzyl)-N-[3-(3-{4-[(dimethylamino)methyl]phenyl}-1H-indazol-6-yl)prop-2-yn-1-yl]-6-oxo-1,6-dihydropyrimidine-5-carboxamide] | 10.7%
15 | Cc1c(C(=O)NCC#Cc2ccc3nc(Nc4ccc(C(=O)NC5CCN(C)CC5)c(F)c4)ncc3c2)c(=O)n(Cc2ccc(F)c(F)c2)n1C | 11%
16 | CN(C)Cc1ccc(Nc2ncc3cc(/C=C(\F)CNC(=O)c4cncn(Cc5ccc(F)c(F)c5)c4=O)ccc3n2)cc1 [IV-30, 1-(3,4-difluorobenzyl)-N-{(2Z)-3-[2-({4-[(dimethylamino)methyl]phenyl}amino)-quinazolin-6-yl]-2-fluoroprop-2-en-1-yl}-6-oxo-1,6-dihydropyrimidine-5-carboxamide] | 13.7%
17 | Cc1c(C(=O)NCC#Cc2ccc3nc(Nc4ccc(C(=O)NCCCN(C)C)cc4)ncc3c2)c(=O)n(Cc2ccc(F)c(F)c2)n1C | 13.1%
18 | CN1CCC(Nc2ccc(Nc3ncc4cc(/C=C/CNC(=O)c5cncn(Cc6ccc(F)c(F)c6)c5=O)ccc4n3)cc2F)CC1 [IV-46, 1-(3,4-difluorobenzyl)-N-{(2E)-3-[2-({3-fluoro-4-[(1-methylpiperidin-4-yl)amino]-phenyl}amino)quinazolin-6-yl]prop-2-en-1-yl}-6-oxo-1,6-dihydropyrimidine-5-carboxamide] | 11.9%
19 | Cc1c(C(=O)NC/C=C/c2ccc3c(c2)NC(=O)/C3=C\c2nc[nH]c2CN)c(=O)n(Cc2ccc(F)c(F)c2)n1C [I-50, N-{(2E)-3-[(3Z)-3-{[5-(aminomethyl)-1H-imidazol-4-yl]methylidene}-2-oxo-2,3-dihydro-1H-indol-6-yl]prop-2-en-1-yl}-2-(3,4-difluorobenzyl)-1,5-dimethyl-3-oxo-2,3-di-hydro-1H-pyrazole-4-carboxamide] | 16.6%
20 | COc1cc(C(=O)NC2CCN(C)CC2)ccc1Nc1ncc2cc(C#CCNC(=O)c3c(C)n(C)n(Cc4ccc(F)c(F)c4)c3=O)ccc2n1 | 61.8%

Further lines, results first:

Row | remaining activity at 10 µM | Structure (SMILES)
21 | 17.5% | O=C(NC/C=C/c1cc(OC2CCNCC2)c2nc(Nc3ccccc3)ncc2c1)c1cncn(Cc2ccc(F)c(F)c2)c1=O [III-19, 1-(3,4-difluorobenzyl)-6-oxo-N-{(2E)-3-[2-(phenylamino)-8-(piperidin-4-yloxy)quinazolin-6-yl]prop-2-en-1-yl}-1,6-dihydropyrimidine-5-carboxamide]
22 | 22.8% | CN1CCC(Nc2ccc(Nc3ncc4cc(C#CCNC(=O)c5cn(C)c(=O)n(Cc6ccc(F)c(F)c6)c5=O)ccc4n3)cc2F)CC1 [III-33, 3-(3,4-difluorobenzyl)-N-{3-[2-({3-fluoro-4-[(1-methylpiperidin-4-yl)amino]phenyl}amino)quinazolin-6-yl]prop-2-yn-1-yl}-1-methyl-2,4-dioxo-1,2,3,4-tetrahydropyrimidine-5-carboxamide]
23 | 21% | COC(=O)c1ccc(Nc2ncc3cc(C#CCNC(=O)c4c(C)n(C)n(Cc5ccc(F)c(F)c5)c4=O)ccc3n2)cc1 [III-46, methyl-4-({6-[3-({[2-(3,4-difluorobenzyl)-1,5-dimethyl-3-oxo-2,3-dihydro-1H-pyrazol-4-yl]carbonyl}amino)prop-1-yn-1-yl]quinazolin-2-yl}amino)benzoate]
24 | 24.9% | Cn1c(=O)c(C#CCNC(=O)c2cncn(Cc3ccc(F)c(F)c3)c2=O)cc2cnc(Nc3ccccc3)nc21 [III-22, 1-(3,4-difluorobenzyl)-N-{3-[8-methyl-7-oxo-2-(phenylamino)-7,8-dihydropyrido-[2,3-d]pyrimidin-6-yl]prop-2-yn-1-yl}-6-oxo-1,6-dihydropyrimidine-5-carboxamide]
25 | 13.5% | Cc1c(C(=O)NCC#Cc2ccc3nc(Nc4ccc(N(C)C5CCN(C)CC5)cc4)ncc3c2)c(=O)n(Cc2ccc(F)c(F)c2)n1C [III-40, 2-(3,4-difluorobenzyl)-1,5-dimethyl-N-{3-[2-({4-[methyl(1-methylpiperidin-4-yl)amino]phenyl}amino)quinazolin-6-yl]prop-2-yn-1-yl}-3-oxo-2,3-dihydro-1H-pyrazole-4-carboxamide]
26 | 19.8% | Cc1c(C(=O)NCC#Cc2ccc3nc(Nc4ccc(C#N)cc4)ncc3c2)c(=O)n(Cc2ccc(F)c(F)c2)n1C [III-45, N-(3-{2-[(4-cyanophenyl)amino]quinazolin-6-yl}prop-2-yn-1-yl)-2-(3,4-difluorobenzyl)-1,5-dimethyl-3-oxo-2,3-dihydro-1H-pyrazole-4-carboxamide]
27 | 13.8% | CN(C)Cc1ccc(Nc2ncc3cc(C#CCNC(=O)c4cc(Cl)nn(Cc5ccc(F)c(F)c5)c4=O)ccc3n2)cc1 [III-37, 6-chloro-2(3,4-difluorobenzyl)-N-{3-[2-({4-[(dimethylamino)methyl]phenyl}-amino)quinazolin-6-yl]prop-2-yn-1-yl}-3-oxo-2,3-dihydropyridazine-4-carboxamide]
